Assay results published in US20230011398A1, “COMBINATION THERAPY APPROACH TO ELIMINATE HIV INFECTIONS” (priority 2019, published 2023).

Columns and labels:
[1] = system: CD4+ T cells with or without infection by HIV-1; test: Western blot of caspases, Bcl-2 family and LC3 after IDB; format: cell-based, human
Procedure: Western blot. PBMC CD4^+ T cells with or without infection by HIV-1 cultured for 4 days with CCL19 as in FIG. 1a. The cells were then cultured in the absence or presence of 0.1 μM IDB for 24 h. The cells were lysed in lysis buffer containing 50 mM HEPES, pH 7.5, 150 mM NaCl, 1 mM EDTA, 1% Triton X-100, 1X protease inhibitor mixture (Roche Applied Science) and 10 μM Benzyloxycarbonyl-Val-Ala-Asp (OMe) fluoromethylketone (zVAD-FMK, ENZO Life Sciences). The cell lysates were determined by the Bradford assay (Bio-Rad). Samples were used for SDS-PAGE and Western blot analyses by probing with different antibodies: monoclonal antibodies to caspase-9 (1:1,000, M054-3, clone 5B4) and caspase-7 (1:1,000, M053-3, clone 4G2) from Medical & Biological Laboratories; polyclonal rabbit antibodies to Atg-7 (1:1,000, 2631S), cleaved caspase-9 (1:1,000, 52873s), caspase-3 (1:1,000, 9665s); cleaved caspase-3 (1:1,000, 9501s), caspase-6 (1:1,000, 9762s), Mc1-1 (1:1,000, 5453s), Bcl-2 (1:1,000, 4223s), Bcl-xL (1:1,000, 2762s), Bak (1:1,000, 12105s), Bax (1:1,000, 2772s), LC3 (1:1000, 4108s) from Cell Signaling Technology and monoclonal antibody to β-Actin (1:50,000, sc-47778, clone C4) from Santa Cruz Biotechnology. The blots were them incubated with HRP-conjugated goat anti-Mouse IgG1 (1:50,000, 1070-05, Southern Biotech) or HRP-conjugated goat anti-Rabbit IgG (1:50,000, ab6721, Abcam) and developed using SuperSignal West Dura Extended Duration Substrate (ThermoFisher).

[2] = system: HIV-1-infected cells and uninfected bystander T cells; test: Mixed culture of HIV-1-infected and CellTrace Violet-labeled uninfected T cells; conditions: alone or together, 0.2 μM BMS-626529 present, 48 h
Procedure: To determine the specificity in the killing of HIV-1 infected cells, uninfected CD4 cells were labeled with CellTrace Violet dye (ThermoFisher Scientific) and mixed with HIV-1-infected cells at the ratio of 1:1. The cells were resuspended in RIPMI complete medium containing 0.2 μM BMS-626529, with 0.1 μM IDB, 0.2 μM ABT-263 and 2 μM SAR405 as indicated for 48 h. The cells were incubated with 1 μM FITC-DEVD-FMK, followed by staining with APC-Annexin and analyses by flow cytometry.

[3] = system: PBMCs from HIV-1-infected patients; test: In vitro treatment of PBMCs from HIV-1-infected patients, HIV-1 mRNA by RT-PCR; format: cell-based, human; conditions: outpatients undergoing ART, no active virus production
Procedure: Quantification of HIV-1 mRNA and DNA. HIV-1 mRNA was measured by RT-PCR similar to the described protocols. LTR-GAG was amplified with forward primer (LTR-GAG-AF), 5′-[…]-3′ (SEQ. ID NO. 9) and reverse primer (LTR-GAG-AR), 5′-[…] […]-3′ (SEQ. ID NO. 10), and detected with the LTR-GAG probe, SHEX/[…]/ZEN /[…]/3IABkFQ (SEQ. ID NO. 11). HIV-1 pol-1 was amplified with POL-1 forward primer (POL-1-AF), 5′-[…]-3′ (SEQ. ID NO. 12) and reverse primer (POL-1-AR), 5′-[…]-3′ (SEQ. ID NO. 13), and detected with the pol-1 probe FAM/[…]/ZEN/[…]/3IABKFQ (SEQ. ID NO. 14) in iTaq Universal Probes Supermix (Bio-Rad). The reaction was carried out by iTaq Universal Probes Supermix (Bio-Rad) with a QuantStudio 5 Real-Time PCR System and analyzed with the QuantStudio Design and Analysis Software (Applied Biosystem). Cycle threshold (Ct) values were calibrated using standard curve generated with the standard samples with known amounts of viral copies.
Treatment of PBMCs from HIV-1-infected patients. PBMCs from HIV-1 patients were resuspended in RPMI complete medium containing and 0.3 ng/ml IL-2 and 50 ng/ml M-CSF and cultured with 0.2 μM BMS-626529, 0.2 μM raltegravir, 25 nM IDB, 20 nM ABT-263, 0.1 μM SAR405 and 0.25 μM JQ1 for 2 days as one cycle of treatments. The cells were then washed and cultures in the same medium for next cycle of culture. […]

[4] = HIV-1-infected T cells, IDB 24 h

## CC1=C[C@]23C(=O)[C@@H](C=C(COC(=O)c4ccccc4)[C@@H](O)[C@]2(O)[C@H]1OC(=O)c1ccccc1)[C@H]1[C@@H](C[C@H]3C)C1(C)C [IDB, ingenol 3,20-dibenzoate]
[1]; CD4+ T cells not infected with HIV-1, IDB 24 h
  expression of anti-apoptotic Bcl-xL and Mcl-1: increased the expression
[1]; [4]
  activation of caspase-9, caspase-3, caspase-6 and caspase-7: induced the activation
  expression of Bcl-xL and Mcl-1: induced the expression of Bcl-xL and Mcl-1
[1]; IDB 24 h
  expression of anti-apoptotic Bcl-2: did not change
[1]; T cell with or without HIV-1 infections, IDB 24 h
  expression of LC3: induced the expression of LC3
[1]; compared with uninfected controls, IDB 24 h
  increase in Bcl-xL expression in HIV-1-infected cells: greater than in uninfected controls
[2]
  killing of HIV-1-infected cells in mixed culture: killed HIV-1-infected cells
  killing of uninfected bystander cells in mixed culture: resistant
[3]
  HIV-1 detection in PBMCs after stimulation with IDB: could be detected
